Paper PMC10378394 (Current Issues in Molecular Biology, 2023)

Columns and labels:
Aurora-A(h) = Aurora-A(h) (Homo sapiens, UniProt O14965); assay: Eurofins kinase assay
PDGFRβ(h) = PDGFRβ(h) (Homo sapiens, UniProt P09619); assay: Eurofins kinase assay
CSF1R [1] = biological target: CSF1R (Homo sapiens, UniProt P07333); assay: Eurofins kinase assay
CSF1R [2] = biological target: T1, CSF1R (Mus musculus, UniProt P09581); assay: Western blot in BMDMs, ligand-dependent phosphorylation; format: cell-based; conditions: 2 h treatment, CSF1 100 ng/mL 15 min
T1 construct: endogenous in cells; host or cells: mouse bone-marrow-derived macrophages (BMDMs)
T1 sequence (P09581 20-977): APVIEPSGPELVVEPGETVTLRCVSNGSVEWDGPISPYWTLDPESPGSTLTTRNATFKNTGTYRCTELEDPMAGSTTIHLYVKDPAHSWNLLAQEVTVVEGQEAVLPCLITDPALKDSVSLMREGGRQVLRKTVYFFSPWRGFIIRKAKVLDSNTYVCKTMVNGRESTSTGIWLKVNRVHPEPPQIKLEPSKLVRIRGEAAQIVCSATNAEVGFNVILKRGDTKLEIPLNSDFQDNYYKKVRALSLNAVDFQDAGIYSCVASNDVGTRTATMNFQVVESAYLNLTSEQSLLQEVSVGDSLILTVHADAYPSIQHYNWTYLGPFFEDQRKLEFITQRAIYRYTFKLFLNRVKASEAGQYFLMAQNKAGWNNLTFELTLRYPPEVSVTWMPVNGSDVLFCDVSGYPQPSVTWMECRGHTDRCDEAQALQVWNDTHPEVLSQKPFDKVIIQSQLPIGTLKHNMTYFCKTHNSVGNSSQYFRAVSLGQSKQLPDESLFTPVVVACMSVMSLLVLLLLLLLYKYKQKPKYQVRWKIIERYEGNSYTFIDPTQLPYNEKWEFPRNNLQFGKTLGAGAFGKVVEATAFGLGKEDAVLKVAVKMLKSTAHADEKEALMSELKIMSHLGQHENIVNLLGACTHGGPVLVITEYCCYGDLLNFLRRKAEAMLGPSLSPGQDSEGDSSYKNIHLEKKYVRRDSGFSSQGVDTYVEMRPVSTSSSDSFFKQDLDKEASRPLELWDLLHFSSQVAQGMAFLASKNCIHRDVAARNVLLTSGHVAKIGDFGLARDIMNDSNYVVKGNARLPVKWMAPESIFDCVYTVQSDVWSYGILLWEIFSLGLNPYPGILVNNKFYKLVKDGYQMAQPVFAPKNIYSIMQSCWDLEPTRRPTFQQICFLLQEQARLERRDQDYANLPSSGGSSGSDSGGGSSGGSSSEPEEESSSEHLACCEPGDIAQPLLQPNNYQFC
Experimental: (§1) HCT116, LS513, SW620, HUVECs, and HT29 cell lines were purchased from the Korean Cell Line Bank (Seoul, Korea). All cell lines were maintained in RPMI or DMEM (Gibco Inc., Billings, MT, USA) supplemented with 10% FBS (Gibco, USA) and penicillin–streptomycin in an incubator at 37 °C and 5% CO2. Bone marrow cells were isolated from the femur and tibia of mice using a single-pass bone marrow aspiration. Cells were cultured in RPMI medium supplemented with 10% FBS and 100 ng/mL CSF1 (Peprotech, Rocky Hill, NJ, USA) for 7 days to differentiate into bone-marrow-derived macrophages (BMDMs).
(§2) In 6-well plates, LS513 cells were seeded and allowed to adhere and proliferate for 24 h. […] After treatment, the cells were harvested using RIPA lysis buffer to extract cellular proteins. The cell lysates were subjected to Western blot analysis. […] The cell lysates were analyzed by Western blot using specific antibodies, such as p-CSF1R (Cell Signaling, #14591S), CSF1R (Cell Signaling, #67455S), p-TIE2 (Cell Signaling, #4221S), and TIE2 (Santa Cruz Biotechnology, Dallas, TX, USA, #sc-293414), to detect and analyze the respective proteins.

TIE2 [3] = biological target: T2, TIE2 (Mus musculus, UniProt Q02858); assay: as above; format: cell-based; conditions: 2 h treatment, angiopoietin 2 100 ng/mL 15 min
T2 construct: endogenous in cells; host or cells: mouse bone-marrow-derived macrophages (BMDMs)
T2 sequence (Q02858 23-1122): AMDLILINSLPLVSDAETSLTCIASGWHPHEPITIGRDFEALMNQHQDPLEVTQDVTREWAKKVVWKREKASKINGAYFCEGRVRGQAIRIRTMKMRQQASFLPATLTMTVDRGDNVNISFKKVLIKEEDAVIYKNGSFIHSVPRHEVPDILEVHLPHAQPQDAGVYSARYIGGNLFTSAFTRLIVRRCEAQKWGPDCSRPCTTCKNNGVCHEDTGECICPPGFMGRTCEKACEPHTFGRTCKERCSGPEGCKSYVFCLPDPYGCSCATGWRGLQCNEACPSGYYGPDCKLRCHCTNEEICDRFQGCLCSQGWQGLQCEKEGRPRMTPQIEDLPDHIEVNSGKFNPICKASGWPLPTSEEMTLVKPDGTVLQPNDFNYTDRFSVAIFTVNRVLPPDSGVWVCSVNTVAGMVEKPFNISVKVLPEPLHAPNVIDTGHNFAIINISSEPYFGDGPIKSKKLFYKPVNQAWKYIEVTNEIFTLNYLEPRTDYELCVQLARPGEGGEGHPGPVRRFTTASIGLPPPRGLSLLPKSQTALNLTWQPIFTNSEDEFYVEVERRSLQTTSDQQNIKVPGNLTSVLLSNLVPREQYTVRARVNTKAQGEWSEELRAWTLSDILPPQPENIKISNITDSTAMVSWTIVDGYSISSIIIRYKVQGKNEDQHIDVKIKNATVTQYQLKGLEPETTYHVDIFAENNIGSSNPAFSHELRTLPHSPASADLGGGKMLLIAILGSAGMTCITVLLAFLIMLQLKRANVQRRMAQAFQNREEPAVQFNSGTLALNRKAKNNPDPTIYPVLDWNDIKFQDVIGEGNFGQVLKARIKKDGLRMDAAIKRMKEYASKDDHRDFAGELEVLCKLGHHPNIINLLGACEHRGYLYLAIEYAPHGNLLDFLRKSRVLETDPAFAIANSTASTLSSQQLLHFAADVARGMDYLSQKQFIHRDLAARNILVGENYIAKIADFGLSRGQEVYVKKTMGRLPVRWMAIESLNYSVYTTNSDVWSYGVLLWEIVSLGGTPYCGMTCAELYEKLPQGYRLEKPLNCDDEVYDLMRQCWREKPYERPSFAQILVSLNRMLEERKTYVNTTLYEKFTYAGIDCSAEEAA
Experimental: as §1, §2

[4] = 2-week repeated oral DRF study; format: in vivo; conditions: 500 mg/kg oral
CHK1(h) = CHK1(h) (Homo sapiens, UniProt O14757); assay: Eurofins kinase assay
[5] = tested on: KRAS and BRAF mutant cancer cells (HCT116, LS513, SW620, HT29); assay: Cell growth assay, panel of cell lines; conditions: read-out: IC50 values, cell growth
Experimental: To assess cell viability, the CellTiter-Glo Luminescent Cell Viability Assay Reagent (Promega, Fitchburg, WI, USA) was added to each well. The assay measured ATP levels as an indicator of cell viability. All data points were normalized to the control samples treated with dimethyl sulfoxide when determining IC50 values. Statistical calculations and data analysis, including IC50 determination, were performed using GraphPad Prism software.

EphB4(h) = EphB4(h) (Homo sapiens, UniProt P54760); assay: Eurofins kinase assay
CSK(h) = CSK(h) (Homo sapiens, UniProt P41240); assay: Eurofins kinase assay
PAR-1Bα(h) = PAR-1Bα(h) (Homo sapiens, UniProt Q7KZI7); assay: Eurofins kinase assay
Chain of PAR-1Bα(h) (Q7KZI7 1-725 isoform Q7KZI7-4): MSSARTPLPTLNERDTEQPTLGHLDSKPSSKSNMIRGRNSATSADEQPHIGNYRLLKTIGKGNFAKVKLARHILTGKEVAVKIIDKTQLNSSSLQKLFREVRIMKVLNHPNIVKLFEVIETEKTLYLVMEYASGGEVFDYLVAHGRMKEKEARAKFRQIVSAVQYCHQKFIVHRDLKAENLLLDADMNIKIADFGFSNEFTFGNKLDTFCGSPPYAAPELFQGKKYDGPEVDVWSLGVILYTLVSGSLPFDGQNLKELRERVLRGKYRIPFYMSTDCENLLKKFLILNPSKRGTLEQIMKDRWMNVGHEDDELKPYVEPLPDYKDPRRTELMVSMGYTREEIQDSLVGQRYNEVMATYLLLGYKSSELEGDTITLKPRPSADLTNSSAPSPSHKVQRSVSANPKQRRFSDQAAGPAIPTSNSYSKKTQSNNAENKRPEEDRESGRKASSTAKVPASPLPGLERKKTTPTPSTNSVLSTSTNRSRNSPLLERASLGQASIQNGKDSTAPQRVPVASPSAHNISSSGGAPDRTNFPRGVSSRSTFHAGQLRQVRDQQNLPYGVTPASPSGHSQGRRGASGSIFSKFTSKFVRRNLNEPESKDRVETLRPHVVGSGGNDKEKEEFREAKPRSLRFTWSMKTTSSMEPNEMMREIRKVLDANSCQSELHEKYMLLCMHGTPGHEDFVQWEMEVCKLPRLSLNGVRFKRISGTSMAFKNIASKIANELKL

TIE2 [6] = biological target: TIE2 (Homo sapiens, UniProt Q02763); assay: Eurofins kinase assay
Chain of TIE2 (Homo sapiens, UniProt Q02763) (Q02763 23-1124): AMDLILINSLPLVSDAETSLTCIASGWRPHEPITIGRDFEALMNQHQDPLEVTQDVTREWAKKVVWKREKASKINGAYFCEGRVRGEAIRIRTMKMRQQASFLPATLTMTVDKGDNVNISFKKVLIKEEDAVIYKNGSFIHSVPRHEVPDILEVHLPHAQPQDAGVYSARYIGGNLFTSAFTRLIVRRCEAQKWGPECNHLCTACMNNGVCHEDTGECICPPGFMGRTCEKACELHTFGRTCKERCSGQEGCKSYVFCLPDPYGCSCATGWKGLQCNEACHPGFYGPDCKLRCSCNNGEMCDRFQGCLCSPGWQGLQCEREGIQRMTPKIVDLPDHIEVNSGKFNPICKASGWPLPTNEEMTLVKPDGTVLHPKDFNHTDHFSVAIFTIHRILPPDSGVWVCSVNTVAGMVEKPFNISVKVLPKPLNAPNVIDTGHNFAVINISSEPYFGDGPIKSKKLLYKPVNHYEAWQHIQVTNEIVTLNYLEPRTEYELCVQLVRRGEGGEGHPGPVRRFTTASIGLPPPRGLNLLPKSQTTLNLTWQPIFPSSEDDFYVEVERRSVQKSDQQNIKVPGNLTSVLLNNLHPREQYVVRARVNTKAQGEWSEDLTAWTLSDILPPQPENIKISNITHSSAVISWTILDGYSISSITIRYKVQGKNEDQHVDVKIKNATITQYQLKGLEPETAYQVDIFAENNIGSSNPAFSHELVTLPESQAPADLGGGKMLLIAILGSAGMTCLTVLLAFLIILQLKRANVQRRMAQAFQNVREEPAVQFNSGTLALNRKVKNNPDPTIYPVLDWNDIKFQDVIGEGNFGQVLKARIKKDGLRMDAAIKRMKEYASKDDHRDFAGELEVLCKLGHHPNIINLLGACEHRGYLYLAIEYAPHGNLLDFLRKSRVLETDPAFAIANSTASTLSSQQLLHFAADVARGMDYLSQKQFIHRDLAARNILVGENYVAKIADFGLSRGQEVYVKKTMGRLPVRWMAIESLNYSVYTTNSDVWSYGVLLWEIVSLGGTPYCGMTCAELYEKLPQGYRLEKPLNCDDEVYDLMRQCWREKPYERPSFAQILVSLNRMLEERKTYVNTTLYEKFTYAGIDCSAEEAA

MC38 tumor tissue = assay: Immunofluorescence of tumor tissue; format: in vivo, mouse; conditions: MC38 tumors of treated mice
Experimental: Immunofluorescence staining was performed on tumor tissues. First, tumor tissue fixation was performed using 4% paraformaldehyde (Sigma-Aldrich, #HT5011). Next, heat-induced epitope retrieval was performed by incubating the tissue in 10 mM sodium citrate for 10 min. Subsequently, permeabilization was achieved by treating the tissue with 0.2% Triton X-100 (Sigma-Aldrich, #X100) for 5 min. To block nonspecific binding, the tissue was incubated in 5% skim milk for 40 min. Primary antibodies, including FOXP3 (eBioscience, San Diego, CA, USA, #11-5773-82), CD8 (eBioscience #53-0081-82), CD31 (Abcam, Cambridge, UK, #ab28364), F480 (Abcam #ab6640), CD163 (Abcam #ab182422), and CD206 (Abcam #ab64693), were used. The secondary antibodies used were FITC-conjugated AffiniPure F(ab’)2 fragment goat anti-rat IgG (H + L) (Jackson ImmunoResearch, West Grove, PA, USA, #112-096-003) and Cy3-conjugated AffiniPure F(ab’)2 fragment goat anti-rabbit IgG (H + L) (Jackson ImmunoResearch #111-166-003). The stained tissue was mounted using ProLong™ Gold Antifade Mountant with DAPI (Invitrogen, Waltham, MA, USA) #14-5773-82). Fluorescent images of the samples were captured using the Agilent BioTek Cytation 1 device. The images were analyzed using the Gen5 program (Version3, BioTek, Winooski, VT, USA) to extract relevant data and perform quantitative analysis.

Chain of CSF1R (Homo sapiens, UniProt P07333) (P07333 20-972): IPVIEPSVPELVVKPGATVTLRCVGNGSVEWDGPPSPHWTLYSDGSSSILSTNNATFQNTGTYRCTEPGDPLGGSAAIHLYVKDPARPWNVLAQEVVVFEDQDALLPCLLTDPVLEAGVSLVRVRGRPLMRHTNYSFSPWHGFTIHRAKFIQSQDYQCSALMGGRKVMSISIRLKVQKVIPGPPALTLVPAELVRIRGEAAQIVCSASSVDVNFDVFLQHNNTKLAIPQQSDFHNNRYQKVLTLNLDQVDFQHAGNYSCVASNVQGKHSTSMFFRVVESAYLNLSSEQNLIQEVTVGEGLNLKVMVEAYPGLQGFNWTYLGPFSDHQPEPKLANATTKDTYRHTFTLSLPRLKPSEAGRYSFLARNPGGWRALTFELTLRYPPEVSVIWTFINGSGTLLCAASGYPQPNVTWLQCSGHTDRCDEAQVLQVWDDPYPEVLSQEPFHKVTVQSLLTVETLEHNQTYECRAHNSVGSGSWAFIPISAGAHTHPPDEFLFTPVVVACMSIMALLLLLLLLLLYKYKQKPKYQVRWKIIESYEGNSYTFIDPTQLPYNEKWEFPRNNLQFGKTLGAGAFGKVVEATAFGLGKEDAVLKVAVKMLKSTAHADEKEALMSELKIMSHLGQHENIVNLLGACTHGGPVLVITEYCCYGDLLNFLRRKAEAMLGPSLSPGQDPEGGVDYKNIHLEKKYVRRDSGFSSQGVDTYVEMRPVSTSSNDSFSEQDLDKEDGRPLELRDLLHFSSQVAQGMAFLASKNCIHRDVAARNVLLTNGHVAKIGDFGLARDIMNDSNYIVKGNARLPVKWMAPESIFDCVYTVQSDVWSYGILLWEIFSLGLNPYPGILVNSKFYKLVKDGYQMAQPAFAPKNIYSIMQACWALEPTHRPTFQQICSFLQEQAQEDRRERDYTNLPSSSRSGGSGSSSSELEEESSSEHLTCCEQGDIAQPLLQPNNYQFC

## O=C(Nc1cc(Nc2ncccc2-c2ncnc3[nH]cnc23)ccc1F)c1cc(C(F)(F)F)cc(C(F)(F)F)c1 [SJ-C1044, N-(5-(3-(9H-purin-6-yl)pyridin-2-ylamino)-2-fluorophenyl)-3,5-bis(trifluoromethyl)benzamide]
Aurora-A(h)
  inhibition at 10 µM: 3%
PDGFRβ(h)
  inhibition at 10 µM: 11%
CSF1R [1]
  IC50: 235 nM
  inhibition at 10 µM: 70%
CSF1R [2]
  ligand-dependent phosphorylation of CSF1R: significant inhibitory effects
TIE2 [3]
  ligand-dependent phosphorylation of TIE2: significant inhibitory effects
[4]
  2-week repeated oral toxicity: no indications of toxicity
CHK1(h)
  inhibition at 10 µM: -2%
[5]
  IC50: 160 to 628 nM
EphB4(h)
  inhibition at 10 µM: -6%
CSK(h)
  inhibition at 10 µM: 3%
PAR-1Bα(h)
  inhibition at 10 µM: 3%
TIE2 [6]
  IC50: 23 nM
  inhibition at 10 µM: 97%
MC38 tumor tissue
  CD31 staining (angiogenesis): reduced
  CD163+ or CD206+ staining (M2 macrophages): significant decrease
  F4/80+ staining intensity (pan macrophage marker): notably reduced
  infiltration of CD8+ T cells: increase
  population of FOXP3+ cells: reducing
